Here are results for two compounds from patent US7157442B2, “Antibacterial compound” (Sankyo Company, Limited, priority 1999, dated 2007).

≈ marks a conversion by molar mass, not a printed value.

The test system of this experiment is M. tuberculosis No. 74. The experiment is described as follows: In vitro antibacterial activity (2): MIC by broth dilution method. Type of experiment: cell-based, Mycobacterium tuberculosis. The following applies: rifampicin-resistant strain; for MIC: Mycobacterium tuberculosis, NO.74, Middlebrook 7H9 broth, 35° C. for 10–21 days, read-out: MICs against Mycobacterium tuberculosis, M. tuberculosis No. 74.

Regarding `CO[C@H]1[C@@H](O)[C@H](n2ccc(=O)[nH]c2=O)O[C@@H]1[C@@H](O[C@H]1OC(C(=O)Nc2ccc(F)c(F)c2)=C[C@H](O)[C@@H]1O)C(N)=O` [Exemplification Compound No. 3712], the MIC was 8 µg/mL (≈ 14 µM) and the “antibacterial activity against M. tuberculosis No. 74 (in words)” value was “excellent antibacterial activity”.

`CO[C@H]1/C=C/O[C@@]2(C)Oc3c(C)c(O)c4c(O)c(c(/C=N/N5CCN(C)CC5)c(O)c4c3C2=O)NC(=O)/C(C)=C\C=C\[C@H](C)[C@H](O)[C@@H](C)[C@@H](O)[C@@H](C)[C@H](OC(C)=O)[C@@H]1C` [rifampicin, reference compound]: the MIC is 128 µg/mL (≈ 156 µM).
